Measurements from patent publication US8211901B2, “Naphthamide derivatives as multi-target protein kinase inhibitors and histone deacetylase inhibitors” (Shenzhen Chipscreen Biosciences Ltd., priority 2009, dated 2012).

Tests used:
A549 = experiment: Tumor cell proliferation (MTS), A549; assay type: cell-based; conditions: Homo sapiens, 72 hours, complete medium
Method: (§1) Measurement of In Vivo Cell Proliferation:
(§2) Tumor cells were trypsinized and plated into 96-well plates at 3,000 per well and incubated in complete medium with 10% FBS for 24 hours. Compounds were added over a final concentration range of 100 μmol/L to 100 nmol/L in 0.1% DMSO and incubated for 72 hours in complete medium. The effects on proliferation were determined by addition of MTS reagent (Promega) according to the instruction, incubation for 2 hours at 37° C. in CO2 incubator, and record the absorbance at 490 nm using an ELISA plate reader.
(§3) Human Cell Lines are Listed Below:
A549: Non small cell lung carcinoma

HCT-8 = experiment: Tumor cell proliferation (MTS), HCT-8; assay type: cell-based; conditions: Homo sapiens, 72 hours, complete medium
Method: as §1, §2, §3
HCT-8: Ileocecal colorectal adenocarcinoma

MCF-7 = experiment: Tumor cell proliferation (MTS), MCF-7; assay type: cell-based; conditions: Homo sapiens, MCF7; 72 hours, complete medium
Method: as §1, §2, §3
MCF-7: Mammary gland adenocarcinoma

Class I HDAC = experiment: P21 reporter gene assay in HeLa cells; assay type: cell-based; conditions: 24 hours
Method: HDAC subtype selectivity inhibition assay of tested compounds was carried out by several reporter gene assays experiments. Briefly, HeLa cells were seeded in 96-well plates the day before transfection to give a confluence of 50-80%. Cells were transfected with one of reporter gene plasmid containing a promoter sequence or response element upstream of a luciferase gene construct using FuGene6 transfection reagent according to the manufacturer's instruction (Roche). The promoters or response elements including p21-promoter was fused upstream to the luciferase gene reporter construct. For normalizing the transfection efficiency, a GFP expression plasmid was cotransfected. Cells were allowed to express protein for 24 hours followed by addition of individual compounds or the vehicle (DMSO). 24 hours later the cells were harvested, and the luciferase assay and GFP assay were performed using corresponding assay kits according to the manufacturer's instructions (Promega).

A-498 = experiment: Tumor cell proliferation (MTS), A-498; assay type: cell-based; conditions: Homo sapiens, A498; 72 hours, complete medium
Method: as §1, §2

Bel-7402 = experiment: Tumor cell proliferation (MTS), Bel-7402; assay type: cell-based; conditions: Homo sapiens, 72 hours, complete medium
Method: as §1, §2, §3
Bel-7402: Hepatocellular carcinoma

[1] = test system: total HDAC enzyme (HeLa extract); experiment: In vitro inhibition of total HDAC enzyme activity (HDAC Fluorimetric Assay/Drug Discovery Kit); assay type: biochemical
Method: Measurement of In Vitro Inhibition of Total HDAC Enzyme Activity:
The in vitro inhibition of total HDAC enzyme was determined by HDAC Fluorimetric Assay/Drug Discovery Kit (BIOMOL) according to manufacture's instruction. • 1. Add Assay buffer, diluted trichostatin A or test inhibitor to appropriate wells of the microtiter plate. Following table lists examples of various assay types and the additions required for each test.
• 2. Add diluted HeLa extract or other HDAC sample to all wells except those that are to be “No Enzyme Controls” (Blank). • 3. Allow diluted Fluor de Lys™ Substrate and the samples in the microtiter plate to equilibrate to assay temperature (25° C.). • 4. Initiate HDAC reactions by adding diluted substrate (25 μl) to each well and mixing thoroughly. • 5. Allow HDAC reactions to proceed for desired length of time and then stop them by addition of Fluor de Lys™ Developer (50 μl). Incubate plate at room temperature (25° C.) for 10-15 min. • 6. Read samples in a microtiter-plate reading fluorimeter capable of excitation at a wavelength in the range 350-380 nm and detection of emitted light in the range 440-460 nm. Measurement of In Vivo Inhibition of HDAC Subtype Activity: […]

HUVEC cells = experiment: VEGF dependent cell proliferation (MTS); assay type: cell-based; conditions: Homo sapiens, VEGF 165 50 ng/ml, 72 hours, serum-free medium, read-out: GI50 nM (VEGF ligand-dependent cell proliferation)
Method: VEGF Dependent Cell Proliferation:
HUVEC cells were plated into 96-well plates at 6,000 per well and incubated with serum-free medium for 2 hours. Compounds and VEGF 165 (50 ng/ml) were added and incubated for 72 hours in serum-free medium. The effects on proliferation were determined by addition of MTS reagent (Promega) according to the instruction, incubation for 2 hours at 37° C. in CO2 incubator, and record the absorbance at 490 nm using an ELISA plate reader.

human PDGFRβ = target: T1, human PDGFRβ (Homo sapiens, UniProt P09619); experiment: PDGF dependent cell proliferation (MTS); assay type: cell-based; conditions: PDGFRβ NIH-3T3 cells, PDGF BB 50 ng/ml, 72 hours, serum-free medium; read-out: GI50 nM (PDGF ligand-dependent cell proliferation)
T1 construct: expressed in transfected cells
T1 sequence (P09619 33-1106): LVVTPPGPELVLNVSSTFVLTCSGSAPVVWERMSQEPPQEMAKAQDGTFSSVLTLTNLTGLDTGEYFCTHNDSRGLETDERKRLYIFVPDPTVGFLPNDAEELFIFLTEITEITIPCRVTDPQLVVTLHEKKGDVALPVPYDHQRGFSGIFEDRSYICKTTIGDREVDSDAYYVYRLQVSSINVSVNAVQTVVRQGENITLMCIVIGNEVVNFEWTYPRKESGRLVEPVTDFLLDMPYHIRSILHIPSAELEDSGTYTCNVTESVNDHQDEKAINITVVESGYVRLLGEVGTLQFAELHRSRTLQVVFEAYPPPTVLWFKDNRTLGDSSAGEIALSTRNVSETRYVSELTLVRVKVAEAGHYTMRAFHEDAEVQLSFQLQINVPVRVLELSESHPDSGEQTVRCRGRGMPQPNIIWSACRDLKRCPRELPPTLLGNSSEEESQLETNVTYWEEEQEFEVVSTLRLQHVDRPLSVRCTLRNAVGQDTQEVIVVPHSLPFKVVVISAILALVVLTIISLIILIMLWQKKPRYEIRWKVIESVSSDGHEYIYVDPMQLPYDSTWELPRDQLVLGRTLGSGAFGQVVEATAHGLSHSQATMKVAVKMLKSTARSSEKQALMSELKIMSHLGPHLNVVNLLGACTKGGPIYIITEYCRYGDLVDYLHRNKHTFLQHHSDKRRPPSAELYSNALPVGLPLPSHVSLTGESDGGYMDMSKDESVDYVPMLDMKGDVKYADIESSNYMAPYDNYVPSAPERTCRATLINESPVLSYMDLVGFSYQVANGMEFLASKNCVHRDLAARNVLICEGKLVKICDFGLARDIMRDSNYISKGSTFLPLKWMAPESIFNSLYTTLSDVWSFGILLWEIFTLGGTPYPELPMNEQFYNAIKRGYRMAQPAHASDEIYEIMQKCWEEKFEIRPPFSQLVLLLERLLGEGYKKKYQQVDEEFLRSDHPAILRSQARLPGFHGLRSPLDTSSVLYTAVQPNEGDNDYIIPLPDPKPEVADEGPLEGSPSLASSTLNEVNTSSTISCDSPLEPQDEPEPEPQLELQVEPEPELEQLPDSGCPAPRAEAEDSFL
Method: PDGF Dependent Cell Proliferation:
NIH-3T3 mouse fibroblasts cell line engineered to stably express human PDGFIRβ was constructed and used to evaluate PDGF dependent cell proliferation. PDGFRβ NIH-3T3 cells were plated into 96-well plates at 5,000 per well and incubated with serum-free medium for 24 hours. Compounds and PDGF BB (50 ng/ml) were added and incubated for 72 hours in serum-free medium. The effects on proliferation were determined by addition of MTS reagent (Promega) according to the instruction, incubation for 2 hours at 37° C. in CO2 incubator, and record the absorbance at 490 nm using an ELISA plate reader.

[2] = Body weight in HCT-8 xenograft study (Example 55); assay type: in vivo, nu/nu mice
Method: The antitumor activity of compound 33 and compound 37 were measured in human HCT-8 colon cancer xenograft model. The female nu/nu mice of 18˜20 g were fed by normal diet for 3 days. Then the cultured HCT-8 human colon cancer cells were implanted into the armpit of 50 mice. […] One group was treated with vehicle. One group was treated with sutent, the positive control drug. Two groups were treated with compound 33. The other two groups were treated with compound 37. Compound 33 was administered twice a day with an interval of 6 hours. Other drugs and vehicle were administered once a day. Each group was dosed orally for 20 days. Tumor volumes as established by caliper measurements were recorded twice per week, along with body weights. At the end of study, the mice were killed, and tumors were weighed. The tumor growth inhibition of each group was calculated using the formula {[(the average tumor weight of vehicle group)−(the average tumor weight of drug group)]/(the average tumor weight of vehicle group)}×100%.

[3] = Body weight in SSMC7721 xenograft study (Example 56); assay type: in vivo, nu/nu mice
Method: The antitumor activity of compound 33 and compound 37 were measured in human SSMC7721 liver cancer xenograft model. The female nu/nu mice of 18˜20 g were fed by normal diet for 3 days. Then the cultured SSMC7721 human liver cancer cells were implanted into the armpit of 50 mice. […] Each group has 8 mice. One group was treated with vehicle. One group was treated with sutent, the positive control drug. Two groups were treated with compound 33. The other two groups were treated with compound 37. Each group was dosed orally once a day for 30 days. Tumor volumes as established by caliper measurements were recorded twice per week, along with body weights. At the end of study, the mice were killed, and tumors were weighed. The tumor growth inhibition of each group was calculated using the formula {[(the average tumor weight of vehicle group)−(the average tumor weight of drug group)]/(the average tumor weight of vehicle group)}×100%.

[4] = 30 mg/kg orally once a day for 20 days
[5] = 60 mg/kg orally once a day for 20 days
[6] = 30 mg/kg orally once a day for 30 days
[7] = 60 mg/kg orally once a day for 30 days

SMILES: Nc1cc(F)ccc1NC(=O)c1ccc(CNC(=O)/C=C/c2cccnc2)cc1 [CS055, Chidamide, reference compound]
- GI50 (A549): 11.2 µM
- GI50 (HCT-8): 7.71 µM
- GI50 (MCF-7): 3.87 µM
- Class I HDAC (P21 reporter assay) Fold Induction at 10 μM (Class I HDAC): 33 Fold
- GI50 (A-498): 12.1 µM
- GI50 (Bel-7402): 18.9 µM

SMILES: COc1cc2ncnc(Oc3ccc4c(C(=O)Nc5ccccc5N)cccc4c3)c2cc1OC [Example 16, N-(2-aminophenyl)-6-(6,7-dimethoxyquinazolin-4-yloxy)-1-naphthamide]
- GI50 (A549): 30 µM
- % inhibition of total HDAC enzyme activity at 30 μM [1]: 8.6%
- GI50 (HCT-8): 12.3 µM
- GI50 (MCF-7): 30 µM
- Class I HDAC (P21 reporter assay) Fold Induction at 10 μM (Class I HDAC): 1.3 Fold
- GI50 (A-498): ≥ 30 µM
- GI50 (HUVEC cells): 3 nM
- GI50 (human PDGFRβ): 48 nM
- GI50 (Bel-7402): 30 µM

SMILES: COc1cc2ncnc(Oc3ccc4c(C(=O)Nc5ccc(F)cc5N)cccc4c3)c2cc1OC [Example 17, N-(2-amino-4-fluorophenyl)-6-(6,7-dimethoxyquinazolin-4-yloxy)-1-naphthamide]
- GI50 (A549): 30 µM
- % inhibition of total HDAC enzyme activity at 30 μM [1]: 22.5%
- GI50 (HCT-8): 3 µM
- GI50 (MCF-7): 30 µM
- Class I HDAC (P21 reporter assay) Fold Induction at 10 μM (Class I HDAC): 1.1 Fold
- GI50 (A-498): ≥ 30 µM
- GI50 (HUVEC cells): 3 nM
- GI50 (human PDGFRβ): 40 nM
- GI50 (Bel-7402): 30 µM

SMILES: COc1cc2ncnc(Oc3ccc4c(C(=O)NCc5ccc(C(=O)Nc6ccccc6N)cc5)cccc4c3)c2cc1OC [Example 23, N-(4-((2-aminophenyl)carbamoyl)benzyl)-6-(6,7-dimethoxyquinazolin-4-yloxy)-1-naphthamide]
- GI50 (A549): 30 µM
- % inhibition of total HDAC enzyme activity at 30 μM [1]: 49.4%
- GI50 (HCT-8): 5.7 µM
- GI50 (MCF-7): 4.3 µM
- Class I HDAC (P21 reporter assay) Fold Induction at 10 μM (Class I HDAC): 11.3 Fold
- GI50 (A-498): 14.7 µM
- GI50 (HUVEC cells): 18 nM
- GI50 (human PDGFRβ): 148 nM
- GI50 (Bel-7402): 30 µM

SMILES: COc1cc2ncnc(Oc3ccc4c(C(=O)NCc5ccc(C(=O)Nc6ccccc6N)cn5)cccc4c3)c2cc1OC [Example 25]
- GI50 (A549): 30 µM
- % inhibition of total HDAC enzyme activity at 30 μM [1]: 47.9%
- GI50 (HCT-8): 4.9 µM
- GI50 (MCF-7): 6.1 µM
- Class I HDAC (P21 reporter assay) Fold Induction at 10 μM (Class I HDAC): 12.1 Fold
- GI50 (A-498): 14.7 µM
- GI50 (HUVEC cells): 13 nM
- GI50 (human PDGFRβ): 69 nM
- GI50 (Bel-7402): 30 µM

SMILES: COc1ccc2c(Oc3ccc4c(C(=O)Nc5ccc(F)cc5N)cccc4c3)ccnc2c1 [Example 32, N-(2-amino-4-fluorophenyl)-6-(7-methoxyquinolin-4-yloxy)-1-naphthamide]
- GI50 (A549): 8.3 µM
- % inhibition of total HDAC enzyme activity at 30 μM [1]: 21.7%
- GI50 (HCT-8): 6.6 µM
- GI50 (MCF-7): 15.9 µM
- Class I HDAC (P21 reporter assay) Fold Induction at 10 μM (Class I HDAC): 1.8 Fold
- GI50 (A-498): 7.5 µM
- GI50 (HUVEC cells): 2 nM
- GI50 (human PDGFRβ): 20 nM
- GI50 (Bel-7402): 17.3 µM

SMILES: COc1cc2nccc(Oc3ccc4c(C(=O)Nc5ccccc5N)cccc4c3)c2cc1OC [Example 35, N-(2-aminophenyl)-6-(6,7-dimethoxyquinolin-4-yloxy)-1-naphthamide]
- GI50 (A549): 7.7 µM
- % inhibition of total HDAC enzyme activity at 30 μM [1]: 19.3%
- GI50 (HCT-8): 8.9 µM
- GI50 (MCF-7): 13.3 µM
- Class I HDAC (P21 reporter assay) Fold Induction at 10 μM (Class I HDAC): 1.2 Fold
- GI50 (A-498): 9.1 µM
- GI50 (HUVEC cells): 1 nM
- GI50 (human PDGFRβ): 5 nM
- GI50 (Bel-7402): 19.5 µM

SMILES: COc1cc2nccc(Oc3ccc4c(C(=O)Nc5ccc(F)cc5N)cccc4c3)c2cc1OC [Example 36, N-(2-amino-4-fluorophenyl)-6-(6,7-dimethoxyquinolin-4-yloxy)-1-naphthamide]
- GI50 (A549): 7.4 µM
- % inhibition of total HDAC enzyme activity at 30 μM [1]: 14.4%
- GI50 (HCT-8): 4.1 µM
- GI50 (MCF-7): 8.9 µM
- Class I HDAC (P21 reporter assay) Fold Induction at 10 μM (Class I HDAC): 1.2 Fold
- GI50 (A-498): 4.2 µM
- GI50 (HUVEC cells): 2 nM
- GI50 (human PDGFRβ): 3 nM
- GI50 (Bel-7402): 12.1 µM

SMILES: COc1cc2nccc(Oc3ccc4c(C(=O)NCc5ccc(C(=O)Nc6ccccc6N)cc5)cccc4c3)c2cc1OC [Example 37, N-(4-((2-aminophenyl)carbamoyl)benzyl)-6-(6,7-dimethoxyquinolin-4-yloxy)-1-naphthamide]
- GI50 (A549): 30 µM
- Body weight (g) end [2, 4]: 23.6 ± 2.2 g
- Body weight (g) start [2, 4]: 20.6 ± 0.8 g
- Body weight (g) end [2, 5]: 24.1 ± 2.1 g
- Body weight (g) start [2, 5]: 20.8 ± 0.8 g
- % inhibition of total HDAC enzyme activity at 30 μM [1]: 35.9%
- GI50 (HCT-8): 30 µM
- GI50 (MCF-7): 30 µM
- Class I HDAC (P21 reporter assay) Fold Induction at 10 μM (Class I HDAC): 3.0 Fold
- GI50 (A-498): ≥ 30 µM
- GI50 (HUVEC cells): 4 nM
- GI50 (human PDGFRβ): 159 nM
- GI50 (Bel-7402): 30 µM
- Body weight (g) end [3, 6]: 25.3 ± 0.9 g
- Body weight (g) start [3, 6]: 20.7 ± 1.2 g
- Body weight (g) end [3, 7]: 24.3 ± 1.1 g
- Body weight (g) start [3, 7]: 21.4 ± 0.6 g

SMILES: COc1cc2nccc(Oc3ccc4c(C(=O)NCc5ccc(C(=O)Nc6ccccc6N)cn5)cccc4c3)c2cc1OC [Example 38]
- GI50 (A549): 30 µM
- % inhibition of total HDAC enzyme activity at 30 μM [1]: 39.3%
- GI50 (HCT-8): 8 µM
- GI50 (MCF-7): 9.4 µM
- Class I HDAC (P21 reporter assay) Fold Induction at 10 μM (Class I HDAC): 3.1 Fold
- GI50 (A-498): 6.9 µM
- GI50 (HUVEC cells): 25 nM
- GI50 (human PDGFRβ): 74 nM
- GI50 (Bel-7402): 30 µM
